In patent US8193351B2, “HSP90 inhibitor” (Chugai Seiyaku Kabushiki Kaisha, priority 2006, dated 2012):

What was measured:
HCT116 cells = assay: Measurement of cell growth inhibition (Cell Counting Kit-8, four days); type: cell-based; settings: Homo sapiens, HCT-116, 96 h; HCT116 colon cancer cell line, four days culture; read-out: Cell growth inhibitory activity (IC50, μM) HCT116
Experimental: Cell growth inhibitory activities of the compounds of the present invention represented by formula (1) were measured by the following method.
Cells were maintained under conditions recommended by the provider of each cell line. Cells suspended in a medium were added to solutions containing various concentrations of the test substance, and the cells were cultured at 37° C. in a 5% CO2 incubator. Four days later, Cell Counting Kit-8 was added, and absorbance measurements were taken following the protocol included in the kit.

Human HSP90 alpha = target: T1, Human HSP90 alpha (Homo sapiens, UniProt P07900); assay: Measurement of HSP90 enzyme inhibitory activity (ATPase, malachite green); type: biochemical; settings: purified human HSP90 alpha, 1 mM ATP added, 37° C., two hours; read-out: Enzyme inhibitory activity (IC50, μM) Human HSP 90α
T1 construct: made in house; host or cells: E. coli BL21 codon plus (Stratagene)
Experimental: HSP90 enzyme inhibitory activity of the compounds of the present invention represented by formula (1) was measured by the following method. Among the 6-phenyl-N-phenyl-(1,3,5)triazin/(1,3)pyrimidin-2,4-diamine derivatives which are known LPAAT-β inhibitors, the following two compounds were used as comparative compounds, and their HSP90 enzyme inhibitory activities were measured similarly by the following method.
Introduction of pETHuHSP90a into E. coli (BL21 codon plus; Stratagene) was followed by O/N incubation in the presence of 0.1 mM IPTG, and the collected E. coli cells were disrupted by ultrasonication in a Lysis buffer (50 mM Tris-HCl (pH8.0), 10 mM MgCl2, 0.1% Triton X-100, Protease inhibitor cocktail tablets (Roche Diagnostics)). The cell lysate solution was centrifuged (10,000 rpm×30 minutes), and the supernatant obtained after centrifugation was used as a crude extract. The crude extract was fractionated using HisPrep FF column and HiTrap Q column (Amersham) to prepare a purified enzyme solution.
An enzyme solution for assays was prepared by dilution of the purified enzyme solution using an assay buffer (50 mM Tris HCl pH7.6, 20 mM KCl, 5 mM MgCl2).
10 μL each of various concentrations of the test substances (10% DMSO solution) was added to each well, and for the positive control wells, 10 μL of 10% DMSO was added. 10 μL of 10% DMSO was also added to the negative control well.
10 μL of 1 mM ATP was added to all of the wells, and the reaction was carried out at 37° C. for two hours.

Row | IC50 (HCT116 cells) [µM] | IC50 (Human HSP90 alpha) [µM] | Compound
1 | 0.63 | 1.4 | Nc1nc(SCCC(=O)NC[C@@H](O)CO)cc(-c2c(Cl)cc3c4c(cccc24)COC3)n1 [Example 320, 3-[2-amino-6-(5-chloro-1H,3H-benzo[de]isochromen-6-yl)-pyrimidin-4-ylsulfanyl]-N—((R)-2,3-dihydroxy-propyl)-propionamide]
2 | 1 | 2.1 | CSc1nc(N)nc(-c2cc(-c3ncccn3)c(Cl)cc2Cl)n1 [Example 24, 4-(2,4-dichloro-5-pyrimidin-2-yl-phenyl)-6-methylsulfanyl-[1,3,5]triazin-2-ylamine]
3 | 2.1 | 1.2 | Nc1nc(SCC2CNC(=O)O2)cc(-c2c(Cl)cc3c4c(cccc24)COC3)n1 (centres unmarked) [Example 330, 5-[2-amino-6-(5-chloro-1H,3H-benzo[de]isochromen-6-yl)-pyrimidin-4-ylsulfanylmethyl]-oxazolidin-2-one]
4 | 0.22 | 1.4 | CNC(=O)CCSc1cc(-c2c(Cl)cc3c4c(cccc24)COC3)nc(N)n1 [Example 318, 3-[2-amino-6-(5-chloro-1H,3H-benzo[de]isochromen-6-yl)-pyrimidin-4-ylsulfanyl]-N-methyl-propionamide]
5 | 0.12 | 1 | CC(=O)NCCSc1nc(N)nc(-c2cc(OCC#N)c(Cl)cc2Cl)n1 [Example 59, N-{2-[4-amino-6-(2,4-dichloro-5-cyanomethoxy-phenyl)-[1,3,5]triazin-2-ylsulfanyl]-ethyl}-acetamide]
6 | 0.31 | 1 | CS(=O)(=O)NCCSc1cc(-c2c(Cl)cc3c4c(cccc24)COC3)nc(N)n1 [Example 329, N-{2-[2-amino-6-(5-chloro-1H,3H-benzo[de]isochromen-6-yl)-pyrimidin-4-ylsulfanyl]-ethyl}-methanesulfonamide]
7 | 0.49 | 1.3 | Nc1nc(SCCNC(=O)CO)nc(-c2c(Cl)cc3c4c(cccc24)COC3)n1 [Example 342, N-{2-[4-amino-6-(5-chloro-1H,3H-benzo[de]isochromen-6-yl)-[1,3,5]triazin-2-ylsulfanyl]-ethyl}-2-hydroxy-acetamide]
8 | 1.4 | 1.7 | COc1ccc(OC)c(Sc2cc(-c3cc(OCC#N)c(Cl)cc3Cl)nc(N)n2)c1 [Example 52, {5-[2-amino-6-(2,5-dimethoxyphenylsulfanyl)-pyrimidin-4-yl]-2,4-dichlorophenyoxy}-acetonitrile]
9 | 1.2 | 1.2 | Nc1nc(SCc2ccccc2)nc(-c2cc(C(=O)NC(CO)CO)c(Cl)cc2Cl)n1 [Example 28, 5-(4-amino-6-benzylsulfanyl-[1,3,5]triazin-2-yl)-2,4-dichloro-N-(2-hydroxy-1-hydroxymethylethyl)-benzamide]
10 | 0.45 | 2.1 | NC(=O)CCSc1cc(-c2c(Cl)cc3c4c(cccc24)COC3)nc(N)n1 [Example 316, 3-[2-amino-6-(5-chloro-1H,3H-benzo[de]isochromen-6-yl)-pyrimidin-4-ylsulfanyl]-propionamide]
11 | 0.49 | 1.2 | Nc1nc(SCCC(=O)NC[C@@H](O)CO)nc(-c2c(Cl)cc3c4c(cccc24)COC3)n1 [Example 335, 3-[4-amino-6-(5-chloro-1H,3H-benzo[de]isochromen-6-yl)-[1,3,5]triazin-2-ylsulfanyl]-N—((R)-2,3-dihydroxy-propyl)-propionamide]
12 | 0.21 | 2.8 | CC(CSc1cc(-c2c(Cl)cc3c4c(cccc24)COC3)nc(N)n1)C(=O)NCCO (centres unmarked) [Example 323, 3-[2-amino-6-(5-chloro-1H,3H-benzo[de]isochromen-6-yl)-pyrimidin-4-ylsulfanyl]-N-(2-hydroxy-ethyl)-2-methyl-propionamide]
13 | 6.6 | 1.4 | COC(=O)c1cc(-c2nc(N)nc(SCC(O)CO)n2)c(C)cc1C (centres unmarked) [Example 37, 5-[4-amino-6-(2,3-dihydroxypropylsulfanyl)-[1,3,5]triazin-2-yl]-2,4-dimethylbenzoic acid methyl ester]
14 | 0.2 | 2.1 | CC(=O)NCCCSc1cc(-c2c(Cl)cc3c4c(cccc24)COC3)nc(N)n1 [Example 328, N-{3-[2-amino-6-(5-chloro-1H,3H-benzo[de]isochromen-6-yl)-pyrimidin-4-ylsulfanyl]-propyl}-acetamide]
15 | 0.2 | 1.1 | COC(=O)CSc1nc(N)nc(-c2c(Cl)cc3c4c(cccc24)COC3)n1 [Example 111, [4-amino-6-(5-chloro-1H,3H-benzo[de]isochromen-6-yl)-[1,3,5]triazin-2-ylsulfanyl]-acetic acid methyl ester]
16 | 0.018 | 1.5 | CNC(=O)C(C)CSc1nc(N)nc(-c2c(Cl)cc3c4c(cccc24)COC3)n1 (centres unmarked) [Example 337, 3-[4-amino-6-(5-chloro-1H,3H-benzo[de]isochromen-6-yl)-[1,3,5]triazin-2-ylsulfanyl]-2,N-dimethyl-propionamide]
17 | 1.1 | 1.3 | NC(=O)CSc1cc(-c2c(Cl)cc3c4c(cccc24)COC3)nc(N)n1 [Example 314, 2-[2-amino-6-(5-chloro-1H,3H-benzo[de]isochromen-6-yl)-pyrimidin-4-ylsulfanyl]-acetamide]
18 | 2.1 | 1.9 | N#CCNC(=O)CSc1cc(-c2c(Cl)cc3c4c(cccc24)COC3)nc(N)n1 [Example 315, 2-[2-amino-6-(5-chloro-1H,3H-benzo[de]isochromen-6-yl)-pyrimidin-4-ylsulfanyl]-N-cyanomethyl-acetamide]
19 | 0.28 | 1 | CC(=O)Nc1ccccc1CSc1nc(N)nc(-c2c(Cl)cc3c4c(cccc24)COC3)n1 [Example 143, N-{2-[4-Amino-6-(5-chloro-1H,3H-benzo[de]isochromen-6-yl)-[1,3,5]triazin-2-ylsulfanylmethyl]-phenyl}-acetamide]
20 | 1.3 | 2.8 | NC(=O)c1cc(-c2nc(N)nc(SCc3ccccc3)n2)c(Cl)cc1Cl [Example 26, 5-(4-amino-6-benzylsulfanyl-[1,3,5]triazin-2-yl)-2,4-dichlorobenzamide]
21 | 8.5 | 1.8 | COc1ccc(OC)c(Sc2cc(-c3ccc(Cl)cc3Cl)nc(N)n2)c1 [Example 39, 4-(2,4-dichlorophenyl)-6-(2,5-dimethoxyphenylsulfanyl)-pyrimidin-2-ylamine]
22 | 0.52 | 2.1 | Nc1nc(SCCCO)cc(-c2c(Cl)cc3c4c(cccc24)COC3)n1 [Example 326, 3-[2-amino-6-(5-chloro-1H,3H-benzo[de]isochromen-6-yl)-pyrimidin-4-ylsulfanyl]-propan-1-ol]
